Measurements as given in patent publication US4228156A, “Synthetic peptides having pituitary growth hormone releasing activity” (Beckman Instruments, Inc., priority 1979, dated 1980).
Non-standard residues stand in square brackets, D forms with d. Residues, ends and D or L forms follow the SMILES beside them.

Test system: pituitaries removed from 20 day old female rats
Test: In vitro growth hormone release study (incubated rat pituitaries, GH radioimmunoassay of the medium)
Format: cell-based, rats (CD-1 strain)
Conditions: two pituitaries in 1 ml lactated Ringer's, 36° C., ± SEM
Experimental: Female rats of the CD-1 strain were housed in a constant temperature room at 24° C. with 14 hours light and 10 hours darkness. The rats were fed Purina brand rat chow ab libitum. All studies were started between 0800 and 1000 hours. Pituitaries were removed from 20 day old female rats. Two pituitaries were incubated at 36° C. in 1 ml of lactated Ringer's solution in 10 ml polytetrafluoroethylene beakers in a Dubnoff Shaker (90 cycles/min.). The pituitaries were incubated a total of 4 hours (P1, P2, I3, and I4). After two successive one hour preincubation periods (P1, P2), the peptide was added to the incubation medium hourly for 2 hours (I3, I4). This in vitro study was performed in triplicate and a standard radioimmunoassay of growth hormone present in the incubation medium was performed in duplicate. The hormonal activity was calculated as the difference (Δ) of growth hormone (GH) levels between I3, I4 and P2, i.e., (I3 -P2) and (I4 -P2). P values were calculated by Students' t test using six growth hormone values for each value recorded. The growth hormone radioimmunoassay reagents were distributed by the National Institute of Arthritis and Metabolite Disease Division (NIAMDD) program. The growth hormone values were calculated in terms of nanograms (ng) of a rat standard with a growth hormone potency of 0.61 units/mg.

NC(=O)[C@H](Cc1ccccc1)NC(=O)[C@@H](Cc1c[nH]c2ccccc12)NC(=O)[C@H](N)Cc1c[nH]c2ccccc12 [H2 N--D-Trp--D-Trp--Phe--CONH2, H2 N-D-Trp-D-Trp-Phe-CONH2] (H-[dW]-[dW]-Phe-NH2) was tested, and the “In vitro growth hormone release (ΔGH, I3-P2 and I4-P2)” value (0.3μg peptide, P Value ~0.02) was 592 ± 237 ng.increment.GH/ml incubation, the “In vitro growth hormone release (ΔGH, I3-P2 and I4-P2)” value (1μg peptide, P Value <0.001) was 943 ± 137 ng.increment.GH/ml incubation and the “In vitro growth hormone release (ΔGH, I3-P2 and I4-P2)” value (10μg peptide, P Value <0.001) was 1263 ± 293 ng.increment.GH/ml incubation. For the same compound, the “In vitro growth hormone release (ΔGH, I3-P2 and I4-P2)” value (100μg peptide, P Value <0.01) was 635 ± 165 ng.increment.GH/ml incubation.
